Results reported in publication PMC10485894, “Corticosteroids as Selective and Effective Modulators of Glycine Receptors” (ACS Chemical Neuroscience, 2023).
Where two headings read alike, the source gives them in different places.

Columns and labels:
[1] = tested on: glycine receptors (GlyR); experiment: Glycine-activated chloride current (IGly), whole-cell patch clamp in isolated hippocampal pyramidal neurons; conditions: for Ipeak max (maximum inhibition attainable) / IC50 / τdes max (maximum inhibition attainable) / normalized charge (Q) of IGly, maximum inhibition (max): 100 μM glycine; for Ipeak max (maximum inhibition attainable) / τdes max (maximum inhibition attainable) / normalized charge (Q) of IGly, maximum inhibition (max): fraction; for IGly peak, effect at 10 μM / IGly τdes, effect at 10 μM: steroid 10 μM coapplied with 100 μM glycine; for IGly peak, effect at 10 μM: hippocampal neurons; for IGly τdes, effect at 10 μM: time constant of IGly decay; for τdes max (maximum inhibition attainable): time constant of desensitization of IGly;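 for all read-outs here: rat CA3 hippocampal pyramidal cells, whole-cell voltage clamp held at −70 mV, steroids tested over 0.01–100 µM, 6–8 cells from 3 animals per mean value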
Method: (§1) First, the ability of steroids to affect the holding current at the voltage-clamp regime was tested. […] Next, the influence of all of the compounds on IGABA and IGly was evaluated. […] The latter effect was quantified by the change in the time constant of the IGly decay (IGly τdes).
(§2) The cells were isolated from rat brain slices as described in detail elsewhere.[47] Briefly, the slices (200–500 μm) of Wistar rat (11–14 days of age) hippocampus or cerebellum were incubated at room temperature for at least 2 h in a solution containing the following components (in mM): 124 NaCl, 3 KCl, 2 CaCl2, 2 MgSO4, 25 NaHCO3, 1.3 NaH2PO4, and 10 D-glucose, pH 7.4. The saline was continuously stirred and bubbled with carbogen (95% O2 + 5% CO2). Single pyramidal neurons from the hippocampal CA3 area or Purkinje cells from sagittal slices of the cerebellum were isolated by a vibrating fused glass pipet with a spherical tip.
(§3) Transmembrane currents were recorded using a conventional patch-clamp technique in the whole-cell configuration. […] The solution in the recording pipet contained the following (in mM): 40 CsF, 100 CsCl, 0.5 CaCl2, 5 EGTA, 3 MgCl2, 4 NaATP, 5 HEPES, pH 7.3. The composition of the extracellular solution was as follows (in mM): 140 NaCl, 3 KCl, 3 CaCl2, 3 MgCl2, 10 D-glucose, 10 HEPES hemisodium, pH 7.4. The speed of perfusion was 0.6 mL/min. Recording of the currents was performed using an EPC7 patch-clamp amplifier (HEKA Elektronik, Germany). The holding potential was maintained at −70 mV. Transmembrane currents were filtered at 3 kHz, stored, and analyzed with IBM-PC computer, using homemade software.
(§4) Statistical analysis was performed with Prism Graphpad software. […] N = 6–8 cells from 3 animals for every average value. […] The EC50 value for steroid potentiation of the IGABA was determined using the equation: Y = Bottom + (Top – Bottom)/[1 + (EC50/C)^n], where Bottom and Top are current amplitudes measured in the control solution and in the presence of steroid, respectively, C is the concentration of steroid, EC50 is the half-maximal stimulating concentration, and n is the slope factor (Hill coefficient).

[2] = tested on: GABA-A receptors (GABAAR); experiment: GABA-activated chloride current (IGABA), whole-cell patch clamp in isolated cerebellar Purkinje cells
Method: as §1, §2, §3, §4

[3] = read-out: Ipeak IC50, peak amplitude of IGly
[4] = read-out: τdes IC50, acceleration of IGly desensitization
[5] = steroid 10 μM coapplied with GABA (2 or 5 μM), Purkinje cells
[6] = read-out: normalized charge (Q) of IGly, IC50, area under the IGly curve

| SMILES | Ipeak max (maximum inhibition attainable) ([1]; peak amplitude of IGly) | IC50 [1, 3] | IC50 [1, 4] | IGly peak, effect at 10 μM [1] | IGly τdes, effect at 10 μM [1] | τdes max (maximum inhibition attainable) [1] | IGABA peak, effect at 10 μM [2] | IGABA peak, effect at 10 μM [2, 5] | further results |
| --- | --- | --- | --- | --- | --- | --- | --- | --- | --- |
| C[C@]12CC[C@@H](O)C[C@H]1CC[C@@H]1[C@@H]2[C@@H](O)C[C@]2(C)[C@@H](C(=O)CO)CC[C@@H]12 [3α5β-CORT, 3α,11β,21-Trihydroxy-5β-pregnan-20-one] | 0.44 ± 0.1 | 23 ± 9.6 µM | 15.2 ± 6.2 µM | No effect | -24% | 0.56 ± 0.08 |  |  | IGABA peak amplitude, % of control [2]: 133 ± 8 % of the control; effect on maximal GABA current [2]: did not change; maximum effect (max) on IGABA [2]: 198 ± 11 % of the control; threshold concentration for potentiation of IGABA ([2]; 2 μM GABA): 10 µM; IGABA, % of control ([2]; 50 μM steroid, 2 μM GABA): 172 ± 18 % of control; IGABA, % of control ([2]; 50 μM steroid, 5 μM GABA): 139 ± 16 % of control |
| CN1CCc2cc3c(cc2[C@H]1[C@@H]1OC(=O)c2c1ccc1c2OCO1)OCO3 [bicuculline] |  |  |  |  |  |  |  |  | effect on IGABA [2]: reversibly blocked |
| C[C@]12CC[C@H]3[C@@H](CCC4=CC(=O)CC[C@@]43C)[C@@H]1CC[C@@H]2C(=O)CO [11-deoxy-CORT, 21-Hydroxypregn-4-ene-3,20-dione] | 0.67 ± 0.2 | 22.9 ± 9.4 µM | 12.2 ± 3.7 µM | No effect | -32% | 0.72 ± 0.08 | No effect |  | effect on IGly at low glycine ([1]; 1 μM steroid, 25 μM glycine (EC10)): did not affect; decrease in the peak amplitude of IGly ([1]; 50 μM steroid, 25 μM glycine (EC10)): 45 ± 7%; amplitude of IGABA, % of control (inhibition) [2]: 70 ± 3 % of the control |
| C[C@]12CC[C@@H](O)C[C@@H]1CC[C@@H]1[C@@H]2[C@@H](O)C[C@]2(C)[C@@H](C(=O)CO)CC[C@@H]12 [3α5α-CORT, 3α,11β,21-Trihydroxy-5α-pregnan-20-one] | 0.51 ± 0.1 | 11.8 ± 5.7 µM | 0.72 ± 0.03 µM | -26% | -54% | 0.59 ± 0.08 |  |  | IGABA, % of control [2]: 120 ± 16 % of control; effect on maximal GABA current [2]: did not change; maximum effect (max) on IGABA [2]: 420 ± 19 % of the control; potentiating effect on IGABA at higher GABA concentrations [2]: not observed; threshold concentration for potentiation of IGABA ([2]; 2 μM GABA): 5 µM; IGABA peak amplitude, % of control ([2]; 5 μM steroid, 2 μM GABA): 150 ± 8 % of the control; IGABA, % of control ([2]; 50 μM steroid, 2 μM GABA): 371 ± 16 % of control; IGABA, % of control ([2]; 50 μM steroid, 5 μM GABA): 156 ± 15 % of control |
| C[C@]12CCC(=O)C[C@@H]1CC[C@@H]1[C@@H]2CC[C@]2(C)[C@@H](C(=O)CO)CC[C@@H]12 [5α-CORT, 21-Hydroxy-5α-pregnane-3,20-dione] | 0.86 ± 0.2 | 32 ± 12.6 µM | 0.71 ± 0.02 µM | No effect | -36% | 0.37 ± 0.04 | No effect |  |  |
| C[C@]12CCC(=O)C=C1CC[C@@H]1[C@@H]2CC[C@@]2(C)[C@H]1CC[C@]2(O)C(=O)CO [11-Deoxycortisol, 17α,21-Dihydroxypregn-4-ene-3,20-dione] | 0.69 ± 0.2 | 21.4 ± 7.6 µM | 13.8 ± 6.3 µM | -26% | -21% | 0.50 ± 0.08 |  | No effect | amplitude of IGABA, % of control (inhibition) ([2]; 100 μM steroid, 5 μM GABA): 58 ± 5 % of the control |
| C[C@]12CCC(=O)C=C1CC[C@@H]1[C@@H]2C(=O)C[C@@]2(C)[C@H]1CC[C@]2(O)C(=O)CO [Cortisone, 17α,21-Dihydroxypregn-4-ene-3,11,20-trione] | 0.57 ± 0.1 | 13.6 ± 5.5 µM | 10.3 ± 3.4 µM | -25% | -24% | 0.48 ± 0.06 |  | No effect |  |
| C[C@]12C[C@H](O)[C@H]3[C@@H](CCC4=CC(=O)CC[C@@]43C)[C@@H]1CC[C@@H]2C(=O)CO [CORT, 11β,21-Dihydroxypregn-4-ene-3,20-dion] | 0.54 ± 0.1 | 12.6 ± 4.8 µM | 0.43 ± 0.05 µM | -26% | -64% | 0.64 ± 0.02 |  | No effect |  |
| C[C@]12CCC(=O)C=C1CC[C@@H]1[C@@H]2[C@@H](O)C[C@@]2(C)[C@H]1CC[C@]2(O)C(=O)CO [Cortisol, 11β,17α,21-Trihydroxypregn-4-ene-3,20-dione] | 0.49 ± 0.1 | 20.2 ± 9.8 µM | 0.63 ± 0.02 µM | -23% | -40% | 0.42 ± 0.05 |  | No effect |  |
| C[C@]12CCC(=O)C[C@H]1CC[C@@H]1[C@@H]2CC[C@]2(C)[C@@H](C(=O)CO)CC[C@@H]12 [5β-CORT, 21-Hydroxy-5β-pregnane-3,20-dione] | 0.85 ± 0.3 | 29.3 ± 9.9 µM | 13.1 ± 5.8 µM | No effect | -27% | 0.61 ± 0.09 | No effect |  | normalized charge (Q) of IGly, maximum inhibition (max) ([1]; area under the IGly curve): 0.96 ± 0.15; IC50 [1, 6]: 37 ± 13 µM |
| C[C@]12CC[C@H](O)CC1=CCC1C2CC[C@@]2(C)C1CC[C@]2(O)C(=O)CO (stereo partly drawn) [17α,21-diOH-PREG, 3β,17α,21-Trihydroxypregn-5-en-20-one] | 0.45 ± 0.1 | 7.2 ± 2.6 µM | 0.39 ± 0.05 µM | -27% | -76% | 0.77 ± 0.03 | No effect |  | normalized charge (Q) of IGly, maximum inhibition (max) ([1]; area under the IGly curve): 0.52 ± 0.01; IC50 [1, 6]: 0.73 ± 0.06 µM |
| NCC(=O)O [glycine] |  |  |  |  |  |  |  |  | EC50 ([1]; read-out: EC50 of glycine for IGly, 600–1000 ms application): 90 ± 7 µM |
